Data reported in patent US20240350494A1, “THERAPEUTIC MODULATION OF INTEGRINS” (Pliant Therapeutics, Inc., priority 2021, published 2024).

How the values were obtained:
[1] = tested on: lung Col1a1 expression; test: Precision cut lung slices, chronic bleomycin exposure, Col1a1 expression; assay type: cell-based, mice (C57BL/6); conditions: 7 days culture, ALK5 inhibitor at 10× IC50; for lung slice Col1a1 expression compared to DMSO vehicle control slices: nintedanib and pirfenidone at 10× therapeutic concentrations, FIG. 4A
Protocol: (§1) Mice (C57BL/6) were administered 3 U/kg of bleomycin (Teva Pharmaceuticals; North Wales, PA) on Day 0 and 1 U/kg of bleomycin on days 14, 28, 42 and 56 via oropharyngeal aspiration while under anesthesia. At day 70, 14 days after the final bleomycin insult, precision cut lung slices were obtained. Following euthanization, 2% low gelling temp agarose was injected into the mouse lungs via the trachea. […] The lobes were then subjected to precision slicing to obtain samples for culture using a microtome (Compresstome VF-300-OZ, Precisionary; Greenville, NC). Individual slices were distributed in a multiwell culture plate and cultured for 7 days under control (DMSO) and test compound conditions. The viability of the slices over the course of culturing was confirmed by WST-1 assay of mitochondrial activity.
During the culture period, slices in the control group were treated with DMSO and slices in the test group were treated with a DMSO solution of one of: the selective antibody αVβ6 inhibitor 3G9; the αVβ1-selective small molecule inhibitor; a combination of the selective antibody αVβ6 inhibitor 3G9 and the αVβ1-selective small molecule inhibitor; compound 5; and the small molecule ALK5 inhibitor. The selective αVβ1 and αVβ6 integrin inhibitors were analyzed at ≥their respective IC90 concentrations for inhibition of TGF-beta activation. Compound 5 was run at approximate IC50 for inhibition of TGF-beta activation by αVβ6.
as §1, with “following” for “after”
During the culture period, slices in the control group were treated with DMSO and slices in the test group were treated with a DMSO solution of one of: compound 5; nintedanib; pirfenidone; a combination of nintedanib and compound 5; a combination of pirfenidone and compound 5; or the small molecule ALK5 inhibitor. Compound 5 was […] effective to equal or exceed its respective IC50 values at αVβ6 and αVβ1. […] Nintendanib and pirfenidone were analyzed at concentrations 10× their reported therapeutic concentrations.

[2] = tested on: Type I Collagen gene Col1a1 expression; test: Precision cut lung slices, acute bleomycin exposure, Col1a1 expression; assay type: cell-based, mice (C57BL/6); conditions: for Type I Collagen gene Col1a1 expression, normalized to DMSO control slices: 3 days culture, integrin inhibitors at IC50 for TGF-beta activation, pan-αV and ALK5 inhibitors at 10× reported IC50, FIG. 3A
Protocol: Mice (C57BL/6) were administered 3 U/kg of bleomycin (Teva Pharmaceuticals; North Wales, PA) on day 0 via oropharyngeal aspiration while under anesthesia. On day 14, precision cut lung slices were obtained. Following euthanization, 2% low gelling temp agarose was injected into the mouse lungs via the trachea. […] The lobes were then subjected to precision slicing to obtain samples for culture using a microtome (Compresstome VF-300-OZ, Precisionary; Greenville, NC). Individual slices were distributed in a multiwell culture plate and cultured for 3 days under control (DMSO) and test compound conditions.

[3] = tested on: COL1A1 expression; test: Precision cut lung slices from human IPF explants, COL1A1 expression; assay type: cell-based; conditions: for COL1A1 expression, treatment alone: PCLS from 5-7 IPF samples, seven days, nintedanib 75 nM, pirfenidone 50 μm
Source text: Explanted lung tissue was obtained from human IPF subjects and inflated with agarose as described in the preceding examples. Biopsy cores were obtained from the agarose-inflated lung tissue. The biopsy cores were subjected to precision slicing to obtain several hundred μm thick. Individual slices were distributed in a multiwell culture plate and cultured for […] under control (DMSO) and test compound conditions. The viability of the slices over the course of culturing was confirmed by WST-1 assay of mitochondrial activity.
PCLS from 5-7 idopathic pulmonary fibrosis (IPF) lung tissue samples were cultured for seven days with one of: DMSO; Compound 5 at 200 nM; nintedanib at 75 nM; pirfenidone at 50 μm; a combination of Compound 5 at 200 nM and nintedanib at 75 nM; a combination of Compound 5 at 200 nM and pirfenidone at 50 μm; or an Alk5 inhibitor at 1 μm. […] FIG. 4D is a bar graph showing relative expression of COL1A1 in precision cut lung slices (PCLS) from idopathic pulmonary fibrosis (IPF) lung tissue upon exposure to Compound 5, clinical standard of care compounds nintedanib (Nin) and pirfenidone (Pirf), and an ALK5 inhibitor, all versus DMSO control.
PCLS from a single IPF lung tissue sample were cultured for seven days with Compound 5 at concentrations of 200 μM, 2 nM, 60 nM, 200 nM, and 1 μM, along with 0.1% DMSO control and an Alk5 inhibitor at 1 μM. […] COL1A1 expression is also graphed for the PCLS in the presence of 0.1% DMSO control, and an Alk5 inhibitor at 1 μM.

| Structure (SMILES) | lung slice Col1a1 expression compared to DMSO vehicle control slices [1] | increase in concentration over compound 5 needed to reduce lung slice Col1a1 expression by 50% ([2]; acute bleomycin injured lung slices, FIG. 4B) | COL1A1 expression, treatment alone [3] | Type I Collagen gene Col1a1 expression, normalized to DMSO control slices [2] | lung Col1a1 expression, normalized to DMSO control slices ([1]; Compound 5 at approximate IC50 (αVβ6), selective inhibitors at ≥IC90, FIG. 3B) | lung Col1a1 expression, normalized to DMSO control slices ([3]; human IPF slices, 3 days, 3G9 ≥400 ng/mL, compound 5 179 nM, ALK5 inhibitor 1 μM, FIG. 4C) |
| --- | --- | --- | --- | --- | --- | --- |
| COC(=O)c1ccc2c(c1)NC(=O)/C2=C(\Nc1ccc(N(C)C(=O)CN2CCN(C)CC2)cc1)c1ccccc1 [nintedanib] | slight increase | 5.2 fold | did not significantly reduce | – | – | – |
| Cc1ccc(=O)n(-c2ccccc2)c1 [pirfenidone] | slight increase | – | did not significantly reduce | – | – | – |
| CC(C)(C)c1cc(Br)cc([C@H](CC(=O)O)NC(=O)CNC(=O)c2cc(O)cc(NC3=NCC(O)CN3)c2)c1 (stereo partly drawn) [second pan-αV small molecule inhibitor, (3S)—N-[3-hydroxy-5-[(1,4,5,6-tetrahydro-5-hydroxy-2-pyrimidinyl)amino]benzoyl]glycyl-3-[3-bromo-5-(1,1-dimethylethyl)phenyl]-β-alanine] | – | – | – | decreased Type I Collagen gene Col1a1 expression comparably | – | – |
| Cc1cccc(-c2n[nH]cc2-c2ccc(F)c(-c3cnn(CCO)c3)c2)n1 [small molecule ALK5 inhibitor, 4-[2-Fluoro-5-[3-(6-methyl-2-pyridinyl)-1H-pyrazol-4-yl]phenyl]-1H-pyrazole-1-ethanol] | substantial, statistically significant (p<0.0001 vs vehicle) decrease | – | – | greatest decrease | greatest decrease | substantial, statistically significant |
